Where two headings read alike, the source gives them in different places.
Assays:
Type in all cases: in vivo
[1] = tested on: canarygrass (Phalaris minor); assay: Test B postemergence plant response; conditions: Phalaris minor, post-emergence, 360 h, Postemergence, read-out: Plant response rating, Canarygrass
Outline: (§1)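 Plants grown in peat/vermiculite medium were sprayed postemergence at 2–18 cm height (1- to 4-leaf stage). After 13–15 days in the greenhouse, response was rated visually against untreated controls on a 0–100 scale (0 no effect, 100 complete control).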

[2] = tested on: windgrass (Apera spica-venti); assay: Test B postemergence plant response; conditions: Apera spica-venti, post-emergence, 360 h, Postemergence, read-out: Plant response rating, Windgrass
Outline: as §1

[3] = tested on: winter barley (Hordeum vulgare); assay: Test B postemergence plant response; conditions: Hordeum vulgare, post-emergence, Postemergence, read-out: Plant response rating, Barley
Outline: as §1

[4] = tested on: chickweed (Stellaria media); assay: Test B postemergence plant response; conditions: Stellaria media, post-emergence, 360 h, Postemergence, read-out: Plant response rating, Chickweed
Outline: as §1

[5] = tested on: yellow nutsedge (Cyperus esculentus); assay: Test B pre-/postemergence plant response; conditions: for pest or weed control at 31 g/ha: 31 g ai/ha; for pest or weed control at 62 g/ha: 62 g ai/ha; for pest or weed control at 125 g/ha: 125 g ai/ha
Source text: (§2) Seeds of plant species selected from blackgrass (Alopecurus myosuroides), downy bromegrass (Bromus tectorum), green foxtail (Setaria viridis), Italian ryegrass (Lolium multiflorum), wheat (Triticum aestivum), wild oat (Avena fatua), deadnettle (henbit deadnettle, Lamium amplexicaule), galium (catchweed bedstraw, Galium aparine), bermudagrass (Cynodon dactylon), Surinam grass (Brachiaria decumbens), cocklebur (Xanthium strumarium), corn (Zea mays), large crabgrass (Digitaria sanguinalis), woolly cupgrass (Eriochloa villosa), giant foxtail (Setaria faberii), goosegrass (Eleusine indica), johnsongrass (Sorghum halepense), kochia (Kochia scoparia), lambsquarters (Chenopodium album), morningglory (Ipomoea coccinea), nightshade (eastern black nightshade, Solanum ptycanthum), yellow nutsedge (Cyperus esculentus), pigweed (Amaranthus retroflexus), ragweed (common ragweed, Ambrosia elatior), Russian thistle (Salsola kali), soybean (Glycine max), sunflower (common oilseed sunflower, Helianthus annuus) and velvetleaf (Abutilon theophrasti) were planted into a blend of loam soil and sand and treated preemergence with test compounds formulated in a non-phytotoxic solvent mixture which included a surfactant.
(§3) At the same time, plants selected from these crop and weed species and also winter barley (Hordeum vulgare), canarygrass (Phalaris minor), chickweed (Stellaria media) and windgrass (Apera spica-venti) were planted in pots containing Redi-Earth® planting medium (Scotts Company, 14111 Scottslawn Road, Marysville, Ohio 43041) comprising spaghnum peat moss, vermiculite, wetting agent and starter nutrients and treated with postemergence applications of some of the test chemicals formulated in the same manner. Plants ranged in height from 2 to 18 cm (1- to 4-leaf stage) for postemergence treatments.
(§4) Treated plants and controls were maintained in a greenhouse for 13 to 15 days, after which time all treated plants were visually evaluated and compared to controls. Plant response ratings, summarized in Table B, are based on a scale of 0 to 100 where 0 is no effect and 100 is complete control. A dash (-) response means no test result.

[6] = tested on: green foxtail (Setaria viridis); assay: Test B pre-/postemergence plant response; conditions: for pest or weed control at 31 g/ha: 31 g ai/ha; for pest or weed control at 62 g/ha: 62 g ai/ha; for pest or weed control at 125 g/ha: 125 g ai/ha
Source text: as §2, §3, §4

[7] = tested on: pigweed (Amaranthus retroflexus); assay: Test B pre-/postemergence plant response; conditions: for pest or weed control at 31 g/ha: 31 g ai/ha; for pest or weed control at 62 g/ha: 62 g ai/ha; for pest or weed control at 125 g/ha: 125 g ai/ha
Source text: as §2, §3, §4

[8] = tested on: giant foxtail (Setaria faberii); assay: Test B pre-/postemergence plant response; conditions: for pest or weed control at 31 g/ha: 31 g ai/ha; for pest or weed control at 62 g/ha: 62 g ai/ha; for pest or weed control at 125 g/ha: 125 g ai/ha
Source text: as §2, §3, §4

[9] = 31 g ai/ha, 0 to 100 scale (0 no effect, 100 complete control)
[10] = 62 g ai/ha, scale 0 to 100 (0 no effect, 100 complete control)
[11] = 125 g ai/ha, scale 0 (no effect) to 100 (complete control), 13 to 15 days
[12] = 250 g ai/ha, scale 0 to 100 (0 no effect, 100 complete control), 13 to 15 days
[13] = Cyperus, pre-emergence, Preemergence, scale 0 to 100 (0 no effect, 100 complete control), read-out: Plant response rating, Nutsedge, Yellow
[14] = Preemergence, 250 g ai/ha, 0 to 100 scale
[15] = Setaria viridis, pre-emergence, Preemergence, scale 0 to 100 (0 no effect, 100 complete control), read-out: Plant response rating, Foxtail, Green
[16] = Amaranthus retroflexus, pre-emergence, Preemergence, scale 0 to 100 (0 no effect, 100 complete control), read-out: Plant response rating, Pigweed
[17] = Setaria faberi, pre-emergence, Preemergence, scale 0 to 100 (0 no effect, 100 complete control), read-out: Plant response rating, Foxtail, Giant

COCCn1c(-c2cc(F)cc(F)c2)ncc(C(=O)C2=C(O)C3CCC(C3)C2=O)c1=O (stereo not drawn) [Compound 243, 2-(3,5-difluorophenyl)-5-[(2-hydroxy-4-oxobicyclo[3.2.1]oct-2-en-3-yl)carbonyl]-3-(2-methoxyethyl)-4(3H)-pyrimidinone]
65%: pest or weed control at 31 g/ha ([5]; Cyperus, post-emergence, Postemergence, 0 to 100 scale (0 no effect, 100 complete control), read-out: Plant response rating, Nutsedge, Yellow) | pest or weed control at 62 g/ha ([5]; Cyperus, post-emergence, Postemergence, scale 0 to 100 (0 no effect, 100 complete control), read-out: Plant response rating, Nutsedge, Yellow) | pest or weed control at 31 g/ha [5, 13]
70%: pest or weed control at 125 g/ha ([5]; Cyperus, post-emergence, Postemergence, scale 0 (no effect) to 100 (complete control), 13 to 15 days, read-out: Plant response rating, Nutsedge, Yellow)
100%: pest or weed control at 125 g/ha [1, 11] | pest or weed control at 250 g/ha [1, 12] | pest or weed control at 250 g/ha [2, 12] | pest or weed control at 62 g/ha [4, 10] | pest or weed control at 125 g/ha [4, 11] | pest or weed control at 250 g/ha [4, 12] | pest or weed control at 125 g/ha ([6]; Setaria viridis, post-emergence, Postemergence, scale 0 (no effect) to 100 (complete control), 13 to 15 days, read-out: Plant response rating, Foxtail, Green) | pest or weed control at 250 g/ha ([6]; Setaria viridis, post-emergence, Postemergence, 250 g ai/ha, scale 0 to 100 (0 no effect, 100 complete control), 13 to 15 days, read-out: Plant response rating, Foxtail, Green) | pest or weed control at 62 g/ha [6, 15] | pest or weed control at 125 g/ha ([6]; Setaria viridis, pre-emergence, Preemergence, scale 0 to 100, 0 no effect, 100 complete control, read-out: Plant response rating, Foxtail, Green) | pest or weed control at 62 g/ha ([7]; Amaranthus retroflexus, post-emergence, Postemergence, scale 0 to 100 (0 no effect, 100 complete control), read-out: Plant response rating, Pigweed) | pest or weed control at 125 g/ha ([7]; Amaranthus retroflexus, post-emergence, Postemergence, scale 0 (no effect) to 100 (complete control), 13 to 15 days, read-out: Plant response rating, Pigweed) | pest or weed control at 250 g/ha ([7]; Amaranthus retroflexus, post-emergence, Postemergence, 250 g ai/ha, scale 0 to 100 (0 no effect, 100 complete control), 13 to 15 days, read-out: Plant response rating, Pigweed) | pest or weed control at 125 g/ha ([7]; Amaranthus retroflexus, pre-emergence, Preemergence, scale 0 to 100, 0 no effect, 100 complete control, read-out: Plant response rating, Pigweed)
75%: pest or weed control at 31 g/ha [7, 16]
98%: pest or weed control at 62 g/ha [1, 10] | pest or weed control at 125 g/ha [2, 11] | pest or weed control at 31 g/ha ([6]; Setaria viridis, post-emergence, Postemergence, 0 to 100 scale (0 no effect, 100 complete control), read-out: Plant response rating, Foxtail, Green) | pest or weed control at 62 g/ha ([6]; Setaria viridis, post-emergence, Postemergence, scale 0 to 100 (0 no effect, 100 complete control), read-out: Plant response rating, Foxtail, Green) | pest or weed control at 62 g/ha [7, 16] | pest or weed control at 125 g/ha ([8]; Setaria faberi, post-emergence, Postemergence, scale 0 (no effect) to 100 (complete control), 13 to 15 days, read-out: Plant response rating, Foxtail, Giant) | pest or weed control at 250 g/ha ([8]; Setaria faberi, post-emergence, Postemergence, 250 g ai/ha, scale 0 to 100 (0 no effect, 100 complete control), 13 to 15 days, read-out: Plant response rating, Foxtail, Giant)
95%: plant injury at 125 g/ha [3, 11] | plant injury at 250 g/ha [3, 12] | pest or weed control at 31 g/ha ([8]; Setaria faberi, post-emergence, Postemergence, 0 to 100 scale (0 no effect, 100 complete control), read-out: Plant response rating, Foxtail, Giant) | pest or weed control at 62 g/ha ([8]; Setaria faberi, post-emergence, Postemergence, scale 0 to 100 (0 no effect, 100 complete control), read-out: Plant response rating, Foxtail, Giant) | pest or weed control at 125 g/ha ([8]; Setaria faberi, pre-emergence, Preemergence, scale 0 to 100, 0 no effect, 100 complete control, read-out: Plant response rating, Foxtail, Giant)
95: Nutsedge, Yellow plant response rating [5, 14] | Foxtail, Giant plant response rating [8, 14]
80%: pest or weed control at 31 g/ha [2, 9] | pest or weed control at 31 g/ha [4, 9] | pest or weed control at 62 g/ha [5, 13]
55%: pest or weed control at 31 g/ha [8, 17]
90%: pest or weed control at 31 g/ha [1, 9] | pest or weed control at 62 g/ha [2, 10] | plant injury at 62 g/ha [3, 10] | pest or weed control at 125 g/ha ([5]; Cyperus, pre-emergence, Preemergence, scale 0 to 100, 0 no effect, 100 complete control, read-out: Plant response rating, Nutsedge, Yellow)
60%: plant injury at 31 g/ha [3, 9]
85%: pest or weed control at 250 g/ha ([5]; Cyperus, post-emergence, Postemergence, 250 g ai/ha, scale 0 to 100 (0 no effect, 100 complete control), 13 to 15 days, read-out: Plant response rating, Nutsedge, Yellow) | pest or weed control at 31 g/ha ([7]; Amaranthus retroflexus, post-emergence, Postemergence, 0 to 100 scale (0 no effect, 100 complete control), read-out: Plant response rating, Pigweed) | pest or weed control at 62 g/ha [8, 17]
100: Foxtail, Green plant response rating [6, 14] | Pigweed plant response rating [7, 14]
35%: pest or weed control at 31 g/ha [6, 15]

Reference: US8952024B2, “Herbicidal pyrimidone derivatives” (E I du Pont de Nemours and Company, priority 2009, dated 2015)
